# What was measured:
# HIVIIIB = assay: Antiviral activity (anti-HIV activity) in MT4 cells, MTT readout; assay type: cell-based; conditions: Human immunodeficiency virus 1, MT4, 120 h, read-out: IC50 (µM, 0% plasma)
# From the text: (§1) The anti-HIV activity of the compound of the invention can be determined in MT4 cells according to the following procedure. MT4 cells were infected with cell-free supernatant of HIVIIIB (previously frozen with known 50% tissue culture infectious dose (TCID50) at 0.003 multiplicity of infection (MOI) for one hour. After one hour infection, cells were washed twice to remove residual viruses, resuspended in culture media and seeded into 96-well tissue culture plates at 1x10^4 cells per well with various half-log dilutions of compounds. Uninfected cells are included as toxicity and cell controls. RPMI 1640 media (Gibco ) with 10% fetal bovine serum were used as culture media. Various concentrations of human serum (Sigma) 50%, 25% and 12.5% were added to culture media resulting in final concentration of 60%, 35% and 22.5% total serum. All assay plates were incubated in 37 deg. cent. incubator for 5 days. MTT (sigma, 5 mg/ml stock in PBS) was added to all wells at 25 ul per well, incubate for 4 hours. 20%SDS with 0.02 N HCl in water was added at 50 ul per well to lyse cellls. Plates incubated overnight for complete lyses were read on a microtitre plate reader at 570/650 nm wavelengths to determine cell optical density (O.D.). Raw data were analysed for percent inhibition by the following formula: (O.D. test well - O.D. virus control)/(O.D. cell control -O.D. virus control)x100 [formula] The 50% effective concentration (EC50) was calculated by the median effect equation (Chou, 1975,Proc. Int. Cong. Pharmacol. 6th p. 619) to determine the efficacy of compound. The 50% lethal concentration (LC50) was calculated using uninfected MT4 cells.
# (§2) Under these conditions, the following data were obtained (n = 4 duplicate determinations: Table 2
# HIV protease = target: T1, HIV protease (Human immunodeficiency virus type 1 group M subtype B, UniProt P04585); assay: Fluorogenic Assay for Screening Inhibitors of HIV Protease; assay type: biochemical; conditions: Inhibitor Concentration 0.5 nanomolar; read-out: Percent Inhibition
# T1 construct: HIV protease consists of two identical subunits, each of which has 99 amino acid residues
# Description: The inhibitory potency of the compound of the invention can be determined by the following method.
# The compound of the invention is dissolved in DMSO and a small aliquot further diluted with DMSO to 100 times the final concentration desired for testing. The reaction is carried out in a 6 X 50 mm tube in a total volume of 300 microliters. The final concentrations of the components in the reaction buffer are: 125 mM sodium acetate, 1 M sodium chloride, 5 mM dithiothreitol, 0.5 mg/ml bovine serum albumin, 1.3 µM fluorogenic substrate, 2% (v/v) dimethylsulfoxide, pH 4.5. After addition of inhibitor, the reaction mixture is placed in the fluorometer cell holder and incubated at 30°C for several minutes. The reaction is initiated by the addition of a small aliquot of cold HIV protease. The fluorescence intensity (excitation 340 nm, emmision 490 nM) is recorded as a function of time. The reaction rate is determined for the first six to eight minutes. The observed rate is directly proportional to the moles of substrate cleaved per unit time. The percent inhibition is 100 X (1 - (rate in presence of inhibitor)/(rate in absence of inhibitor)).
# Fluorogenic substrate: Dabcyl-Gaba-Ser-Gln-Asn-Tyr-Pro-lle-Val-Gln-EDANS wherein DABCYL = 4-(4-dimethylamino-phenyl)azobenzoic acid, Gaba = γ-aminobutyric acid, and EDANS = 5-((2-aminoethyl)amino)-naphthalene-1-sulfonic acid.
# [1] = 50% lethal concentration in uninfected MT4 cells (MTT); assay type: cell-based; conditions: human, read-out: LC50
# From the text: as §1, §2
# [2] = tested on: HIV Selected In Vitro by the Compound of Example 2B; assay: microbe, parasite or virus in culture; assay type: cell-based
# [3] = Human immunodeficiency virus 1, NL43, Virus NL4-3
# [4] = Human immunodeficiency virus 1, Virus P7
# [5] = Human immunodeficiency virus 1, Virus P11
# [6] = Human immunodeficiency virus 1, Virus P14
# [7] = Human immunodeficiency virus 1, Virus P17
structure (smiles),measurement,setting,value
"Cc1cccc(C)c1OCC(=O)N[C@@H](Cc1ccccc1)[C@@H](O)C[C@H](Cc1ccccc1)NC(=O)[C@H](C(C)C)N1C(=O)CCC1=O [Example 18C, (2S,3S,5S)-2-(2,6-Dimethylphenoxyacetyl) amino-3-hydroxy-5-(2S-(1-pyrrolidin-2,5-dionyl)-3-methyl-butanoyl) amino-1,6-diphenylhexane]",IC50,HIVIIIB,0.329 µM
same,inhibition at 0.0005 µM,HIV protease,57.8%
same,CC50 at 120 h,[1],19100 nM
Cc1cccc(C)c1/C=C/C(=O)N[C@@H](Cc1ccccc1)[C@@H](O)C[C@H](Cc1ccccc1)NC(=O)[C@H](C(C)C)N1CCCNC1=O [Example 19E],IC50,HIVIIIB,0.395 µM
same,inhibition at 0.0005 µM,HIV protease,68.5%
same,CC50 at 120 h,[1],18000 nM
"Cc1cccc(C)c1OCC(=O)N[C@@H](Cc1ccccc1)[C@@H](O)C[C@H](Cc1ccccc1)NC(=O)[C@H](C(C)C)N1CCC(=O)NC1=O [Example 25E, (2S,3S,5S)-2-(2,6-Dimethylphenoxyacetyl) amino-3-hydroxy-5-[2S-(1-tetrahydro-pyrimid-2,4-dionyl)-3-methylbutanoyl]amino-1,6-diphenylhexane]",IC50,HIVIIIB,0.012 µM
same,inhibition at 0.0005 µM,HIV protease,100%
same,CC50 at 120 h,[1],22900 nM
"Cc1cccc(C)c1OCC(=O)N[C@@H](Cc1ccccc1)[C@@H](O)C[C@H](Cc1ccccc1)NC(=O)[C@H](C(C)C)N1CCNNC1=O [Example 26H, (2S,3S,5S)-2-(2,6-Dimethylphenoxyacetyl) amino-3-hydroxy-5[2S-(4-aza-1-tetrahydro-pyrimid-2-onyl)-3-methyl-butanoyl]amino-1,6-diphenylhexane]",IC50,HIVIIIB,0.015 µM
same,inhibition at 0.0005 µM,HIV protease,94.6%
same,CC50 at 120 h,[1],33000 nM
"Cc1cccc(C)c1OCC(=O)N[C@@H](Cc1ccccc1)[C@@H](O)C[C@H](NC(=O)[C@H](C(C)C)N1CCCNC1=O)C(C)C [Example 27D, (2S,3S,5S)-2-(2,6-Dimethylphenoxyacetyl) amino-3-hydroxy-5-[2S-(1-tetrahydro-pyrimid-2-onyl)-3-methylbutanoyl]amino-1-phenyl-6-methylheptane]",IC50,HIVIIIB,0.03 µM
same,inhibition at 0.0005 µM,HIV protease,92.9%
same,CC50 at 120 h,[1],56200 nM
"Cc1cccc(C)c1OCC(=O)N[C@@H](Cc1ccccc1)[C@@H](O)C[C@H](NC(=O)[C@H](C(C)C)N1CCC(=O)NC1=O)C(C)C [Example 28, (2S,3S,5S)-2-(2,6-Dimethylphenoxyacetyl) amino-3-hydroxy-5-[2S-(1-tetrahydro-pyrimid-2,4-dionyl)-3-methylbutanoyl]amino-1-phenyl-6-methylheptane]",IC50,HIVIIIB,0.011 µM
same,inhibition at 0.0005 µM,HIV protease,86.6%
same,CC50 at 120 h,[1],72200 nM
"Cc1cccc(C)c1OCC(=O)N[C@@H](Cc1ccccc1)[C@@H](O)C[C@H](Cc1ccccc1)NC(=O)[C@H](C(C)C)N1CCNC(=O)C1=O [Example 29C, (2S,3S,5S)-2-(2,6-Dimethylphenoxyacetyl)amino-3-hydroxy-5-[2S-(1-piperazin-2,3-dionyl)-3-methylbutanoyl]amino-1,6-diphenylhexane]",IC50,HIVIIIB,0.427 µM
same,inhibition at 0.0005 µM,HIV protease,72.6%
same,CC50 at 120 h,[1],56000 nM
"Cc1cccc(C)c1OCC(=O)N[C@@H](Cc1ccccc1)[C@@H](O)C[C@H](Cc1ccccc1)NC(=O)[C@H](C(C)C)N1CC=NNC1=O [Example 30B, (2S,3S,5S)-2-(2,6-Dimethylphenoxyacetyl) amino-3-hydroxy-5[2S-(4-aza-4,5-dehydro-1-pyrimid-2-onyl)-3-methyl-butanoyl]amino-1,6-diphenylhexane]",IC50,HIVIIIB,0.003 µM
same,inhibition at 0.0005 µM,HIV protease,91%
same,CC50 at 120 h,[1],18000 nM
"CC(C)(C)NC(=O)[C@@H]1CN(Cc2cccnc2)CCN1C[C@@H](O)C[C@@H](Cc1ccccc1)C(=O)N[C@H]1c2ccccc2C[C@H]1O [Indinavir, N-(2(R)-hydroxy-1 (S)-indanyl)-2(R)-phenylmethyl-4(S)-hydroxy-5-(1-(4-(3-pyridylmethyl)-2(S)-N'-(t-butylcarboxamido)-piperazinyl))-pentaneamide]",EC50,[2]; [3],67 nM
same,EC50,[2]; [4],113 nM
same,EC50,[2]; [5],153 nM
same,EC50,[2]; [6],425 nM
same,EC50,[2]; [7],1360 nM
same,resistance (fold),[2]; P17 virus,20 fold
"CC(C)(C)NC(=O)[C@@H]1C[C@@H]2CCCC[C@@H]2CN1C[C@@H](O)[C@H](Cc1ccccc1)NC(=O)[C@H](CC(N)=O)NC(=O)c1ccc2ccccc2n1 [Saquinavir, N-tert-butyl-decahydro-2-[2(R)-hydroxy-4-phenyl-3(S)-[[N-(2-quinolylcarbonyl)-L-asparaginyl]amino]butyl]-(4aS,8aS)-isoquinoline-3(S)-carboxamide]",EC50,[2]; [3],20 nM
same,EC50,[2]; [4],33 nM
same,EC50,[2]; [5],58 nM
same,EC50,[2]; [6],48 nM
same,EC50,[2]; [7],82 nM
same,fold change in EC50,"[2]; all of the passaged virus (P7, P11, P14, P17)",≤ 4 fold

# Reference: patent publication EP1295874A2, “Retroviral protease inhibiting compounds” (Abbott Laboratories, priority 1995, dated 1997)
